What was measured:
[1] = tested on: mixed bouquet of 12 flowers; test: Flower life of a mixed bouquet of cut flowers in a vase with 1 litre of solution; type: in vivo, Rosa, Chrysanthemum santini, Gerbera, Antirrhinum, Solidago; conditions: 1 litre solution, 20° C., 12 per 24 hours of 1000 lux, additions per litre of base solution (BZC 30 ppm, GOX 100 SRU)
Procedure: A mixed bouquet of 12 flowers composed as follows: was placed in a vase with 1 litre of solution. The solution was either tap water or an aqueous base solution containing 10 g/1 of a composition containing 94.66% glucose, 5% citric acid, 0.34% conventional biocides. […] The vases with flowers were placed under 12 per 24 hours of 1000 lux, at 20° C.

bacterial contamination = test: Bacterial contamination after 7 days; type: cell-based; conditions: for CFU (bacterial contamination after 7 days): below 10 hardly or not contaminated, above 1,000 heavily contaminated, additions per litre of base solution (BZC 30 ppm, GOX 100 SRU); for effect on bacterial contamination (in words): summary of the table
Procedure: was placed in a vase with 1 litre of solution. The solution was either tap water or an aqueous base solution containing 10 g/1 of a composition containing 94.66% glucose, 5% citric acid, 0.34% conventional biocides. […] The vases with flowers were placed under 12 per 24 hours of 1000 lux, at 20° C.

| Substance | FL (flower life) [1] [days] | CFU (bacterial contamination after 7 days) (bacterial contamination) | effect on bacterial contamination (in words) (bacterial contamination) |
| --- | --- | --- | --- |
| benzalkonium chloride [BZC] | 12.0 | 900 1000 CFU/g stem | strong effect |
| glucose oxidase [GOX] | 12.7 | 4,400 1000 CFU/g stem | strong effect |

From patent publication US20180170776A1, “ANTI-MICROBIAL ADDITIVE FOR USE IN FLOWER VASE WATER” (Enhold B.V., priority 2008, published 2018)
